US20120018333A1, “Reducing Side Effects of Tramadol” (priority 2007, published 2012)
Counter-ions that a name gives are not always drawn.

Assays:
[1] = placebo controlled, dose-ranging clinical study of oral tramadol HCl in men with severe premature ejaculation; type: in vivo, human; conditions: percentages based on total drug exposures for the three doses, 2 to 5 hours before intercourse
Method: See U.S. Pat. No. 6,974,839, Safarinejad et al., J. Clin. Psychopharmacol., 26(1):27-31 (February 2006) and Salem et al., J. Sex. Med., 5(1):188-193 (January 2008). A placebo controlled, dose-ranging clinical study that enrolled more than 60 male volunteers with severe premature ejaculation who self administered three different doses of oral tramadol HCl 2 to 5 hours before sexual intercourse was performed on behalf of DMI BioSciences, Inc., Aurora, Colo. […] However, the patient reported outcome responses in this study also reported the following previously unreported mild or moderate adverse events (percentages based on total drug exposures for the three doses): erectile dysfunction (8%-14%), anorgasmia (3%-7%), and penile hypoesthesia (4%-5%). Less common unexpected, drug-related mild or moderate adverse events were decreased libido (<1%-2%) and decreased orgasmic sensation (0-<1%). These mild or moderate adverse events related to sexual activity were generally dose-dependent and occurred more frequently in men 40 years of age and older.

[2] = volunteer study of adverse events: tramadol HCl alone or combined with sildenafil citrate and naltrexone HCl before sexual intercourse
Method: In particular, three healthy, heterosexual male subjects (mean age 57) signed informed consents and volunteered to self administer oral tramadol HCl 100 mg 2 to 5 hours before sexual intercourse and to record any adverse events. At other times, these volunteers self administered oral tramadol HCl 25 to 100 mg combined with oral sildenafil citrate 50 mg or oral sildenafil citrate 50 mg plus oral naltrexone HCl 2.5 to 10 mg 2 to 5 hours before sexual intercourse and recorded any adverse effects.

[3] = used for analgesia; cited from earlier work
[4] = tramadol HCl 100 mg alone, % of total drug exposures, three volunteers

For COc1cccc([C@]2(O)CCCC[C@H]2CN(C)C)c1 (racemic) [tramadol HCl, (±) cis-2-[(dimethylamino)methyl]-1-(3-methoxyphenyl)-cyclohexanol hydrochloride], the “anorgasmia (mild or moderate adverse event)” value [1] was 3%-7%, the “decreased libido (mild or moderate adverse event)” value [1] was <1%-2% and the “erectile dysfunction (mild or moderate adverse event)” value [1] was 8%-14%. For the same compound, the “penile hypoesthesia (mild or moderate adverse event)” value [1] was 4%-5%, the serious adverse events ([2]; oral, 2 to 5 hours before sexual intercourse) was “No serious adverse events occurred” and the anorgasmia [2, 4] was 29%. It also gave a constipation [2, 4] of 71%, a decreased libido [2, 4] of 43% and a decreased orgasmic sensation [2, 4] of 57%. It also gave a dizziness [2, 4] of 14%, a dry mouth [2, 4] of 57% and an erectile dysfunction [2, 4] of 43%. For the same compound, the fatigue [2, 4] was 14%, the insomnia [2, 4] was 71% and the itching [2, 4] was 57%. The nasal congestion [2, 4] was 57%, the nausea [2, 4] was 14% and the penile hypoesthesia [2, 4] was 43%. For the same compound, the restlessness [2, 4] was 29% and the “mild or moderate adverse events, 100 mg dose compared with 25 mg” value ([2]; tramadol HCl alone, oral) was “substantially more”.

In the case of COc1cccc(C2(O)CCCCC2CN(C)C)c1 (stereo not shown) [Tramadol, 2-[(dimethylamino)methyl]-1-(3-methoxyphenyl)-cyclohexanol], the “incidence of reported side effects (dizziness, nausea, constipation, headache, somnolence, vomiting, pruritis, CNS stimulation, asthenia, sweating, dyspepsia, dry mouth, diarrhea)” value [3] is listed as no less than 5%.

With O=C1CC[C@@]2(O)[C@H]3Cc4ccc(O)c5c4[C@@]2(CCN3CC2CC2)[C@H]1O5 [naltrexone] the “effectiveness of tramadol in delaying ejaculation” value ([2]; naltrexone 2.5 mg to 10 mg given with tramadol) was “did not reduce”.
